Calls of active or inactive are those of the source.
What was measured:
[1] = tested on: Vero; test: host cell cytotoxicity of antiviral hits, dose response, cytotoxicity control for West Nile virus antiviral project, secondary assay (AID 1650); assay type: functional; conditions: Chlorocebus sabaeus
[2] = tested on: Streptococcus sp. 'group A'; test: growth inhibition of control SK(-) GAS strain, dose response, counter-screen for streptokinase expression inhibitor project, luminescence, kanamycin, BacTiterGlo, confirmation (AID 1900); assay type: functional, organism-based
[3] = tested on: Streptococcus; test: Group A Streptococcus viability loss, dose response, counter-screen for streptokinase expression inhibitor project, luminescence, BacTiterGlo (AID 1915); assay type: functional, organism-based;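 also: potency for reduction of bacterial viability or growth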
[4] = molecular target: T1, Streptokinase A (Streptococcus pyogenes serotype M1, UniProt P10520); test: S. pyogenes streptokinase expression inhibitors, potency, dose response, plasminogen activation absorbance, OD405 (AID 1914); assay type: functional, Streptococcus pyogenes M1 GAS;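 also: secreted streptokinase activity via plasminogen activation per viability signal from cell pellet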
T1 sequence (P10520 whole entry): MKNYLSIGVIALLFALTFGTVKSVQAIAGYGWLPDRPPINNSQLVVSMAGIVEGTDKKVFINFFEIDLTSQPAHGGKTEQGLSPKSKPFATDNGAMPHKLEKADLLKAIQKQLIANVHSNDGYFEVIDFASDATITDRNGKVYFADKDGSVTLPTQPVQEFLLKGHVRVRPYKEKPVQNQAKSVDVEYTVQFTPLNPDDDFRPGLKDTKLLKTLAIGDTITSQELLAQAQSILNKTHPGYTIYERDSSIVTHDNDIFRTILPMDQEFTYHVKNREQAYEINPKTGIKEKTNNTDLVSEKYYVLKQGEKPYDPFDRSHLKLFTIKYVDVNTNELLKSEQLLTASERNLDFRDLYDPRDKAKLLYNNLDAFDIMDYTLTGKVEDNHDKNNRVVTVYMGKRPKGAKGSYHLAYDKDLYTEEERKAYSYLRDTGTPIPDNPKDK

[5] = molecular target: T2, Protein RecA (Mycobacterium tuberculosis, UniProt P9WHJ3); test: Fluorescence Cell-Free Homogeneous Dose Retest to Identify Inhibitors of RecA-Intein Splicing Activity. [Related pubchem assays (depositor defined):AID2097, AID2223, AID489010, AID492950]; assay type: functional
T2 sequence (P9WHJ3 whole entry): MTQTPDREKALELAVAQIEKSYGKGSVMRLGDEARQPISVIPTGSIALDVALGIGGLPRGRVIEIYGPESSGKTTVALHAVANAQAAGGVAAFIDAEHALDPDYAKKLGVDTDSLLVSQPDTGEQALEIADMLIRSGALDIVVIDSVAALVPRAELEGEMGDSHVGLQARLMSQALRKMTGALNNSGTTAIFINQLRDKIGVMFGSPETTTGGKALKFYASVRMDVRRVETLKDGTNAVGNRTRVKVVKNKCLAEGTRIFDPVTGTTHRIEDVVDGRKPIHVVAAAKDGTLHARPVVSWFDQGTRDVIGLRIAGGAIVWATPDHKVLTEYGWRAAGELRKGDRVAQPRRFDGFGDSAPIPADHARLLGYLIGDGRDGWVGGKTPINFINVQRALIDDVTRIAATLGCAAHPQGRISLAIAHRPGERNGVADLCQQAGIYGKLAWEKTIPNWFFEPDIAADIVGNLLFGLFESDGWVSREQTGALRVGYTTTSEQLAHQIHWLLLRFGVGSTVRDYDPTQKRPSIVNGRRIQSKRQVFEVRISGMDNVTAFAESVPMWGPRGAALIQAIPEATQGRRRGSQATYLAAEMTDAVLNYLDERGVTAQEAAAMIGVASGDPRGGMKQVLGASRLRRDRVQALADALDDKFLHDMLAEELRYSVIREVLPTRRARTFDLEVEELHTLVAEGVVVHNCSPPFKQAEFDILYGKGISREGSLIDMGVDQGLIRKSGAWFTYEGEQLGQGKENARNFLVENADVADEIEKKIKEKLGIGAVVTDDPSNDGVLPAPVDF

[6] = molecular target: Glyceraldehyde-3-phosphate dehydrogenase (Homo sapiens, UniProt P04406)
Chain of Glyceraldehyde-3-phosphate dehydrogenase (P04406 whole entry): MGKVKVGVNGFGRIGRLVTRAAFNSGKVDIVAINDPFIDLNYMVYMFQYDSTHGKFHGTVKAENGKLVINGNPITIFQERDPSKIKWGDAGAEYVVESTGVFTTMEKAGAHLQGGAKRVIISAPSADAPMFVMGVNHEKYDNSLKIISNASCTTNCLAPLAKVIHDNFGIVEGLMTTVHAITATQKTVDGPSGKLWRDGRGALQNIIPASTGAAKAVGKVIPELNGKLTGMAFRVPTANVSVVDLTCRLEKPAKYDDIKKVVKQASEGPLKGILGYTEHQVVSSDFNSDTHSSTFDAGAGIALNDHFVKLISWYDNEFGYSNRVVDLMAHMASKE

[7] = molecular target: T3, Bcl-2-related protein A1 (Mus musculus, UniProt Q07440); test: Bfl-1 inhibitors blocking BH3 peptide binding, confirmation, biochemical, TR-FRET, mouse Bfl-1 (AID 621);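 also: TR-FRET binding of GST-Bfl-1 to FITC-labelled Bid peptide via terbium antibody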
T3 sequence (Q07440 whole entry): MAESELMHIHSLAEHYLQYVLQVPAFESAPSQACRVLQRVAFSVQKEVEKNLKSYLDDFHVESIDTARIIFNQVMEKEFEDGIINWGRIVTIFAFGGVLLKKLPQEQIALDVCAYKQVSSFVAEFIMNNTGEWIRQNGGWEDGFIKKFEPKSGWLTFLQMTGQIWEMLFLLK

[8] = molecular target: T3, Bcl-2-related protein A1; test: Bfl-1 binding inhibitors, SAR follow-up, biochemical, fluorescence polarization (AID 1070)
[9] = molecular target: T4, Replicative DNA helicase DnaB (Mycobacterium tuberculosis, UniProt P9WMR3); test: DnaB intein splicing inhibitors, dose response, biochemical, cell-free fluorescence (AID 449749); assay type: functional
T4 sequence (P9WMR3 whole entry): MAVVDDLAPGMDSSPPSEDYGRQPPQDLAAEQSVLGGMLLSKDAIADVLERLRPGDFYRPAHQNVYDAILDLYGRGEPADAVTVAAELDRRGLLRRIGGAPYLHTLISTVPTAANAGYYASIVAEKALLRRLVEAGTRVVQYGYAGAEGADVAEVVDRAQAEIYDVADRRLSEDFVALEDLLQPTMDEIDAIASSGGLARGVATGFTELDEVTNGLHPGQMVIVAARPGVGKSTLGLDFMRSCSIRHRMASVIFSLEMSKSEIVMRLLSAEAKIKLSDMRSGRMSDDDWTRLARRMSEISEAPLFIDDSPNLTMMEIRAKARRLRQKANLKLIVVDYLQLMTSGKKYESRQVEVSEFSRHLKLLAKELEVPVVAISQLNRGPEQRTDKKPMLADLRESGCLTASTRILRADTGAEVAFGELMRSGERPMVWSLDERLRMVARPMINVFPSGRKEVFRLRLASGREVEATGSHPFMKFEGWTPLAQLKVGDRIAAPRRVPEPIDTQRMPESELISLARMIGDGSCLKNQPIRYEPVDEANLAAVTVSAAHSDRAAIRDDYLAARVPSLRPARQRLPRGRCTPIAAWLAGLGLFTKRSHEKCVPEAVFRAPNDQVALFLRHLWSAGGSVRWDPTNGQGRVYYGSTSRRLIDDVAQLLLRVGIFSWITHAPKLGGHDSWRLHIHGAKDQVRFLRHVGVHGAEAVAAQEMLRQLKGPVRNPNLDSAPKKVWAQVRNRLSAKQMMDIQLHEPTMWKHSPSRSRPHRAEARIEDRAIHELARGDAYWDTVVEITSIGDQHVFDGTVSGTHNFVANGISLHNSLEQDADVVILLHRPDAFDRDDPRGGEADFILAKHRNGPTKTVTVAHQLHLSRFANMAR

[10] = molecular target: Genome polyprotein (dengue virus type 2, UniProt P29990); test: Dengue-2 NS5 methyltransferase inhibitors, primary screen, biochemical, confirmation dose response (AID 588689); assay type: functional
Chain of Genome polyprotein (P29990 2492-3391 limits assumed): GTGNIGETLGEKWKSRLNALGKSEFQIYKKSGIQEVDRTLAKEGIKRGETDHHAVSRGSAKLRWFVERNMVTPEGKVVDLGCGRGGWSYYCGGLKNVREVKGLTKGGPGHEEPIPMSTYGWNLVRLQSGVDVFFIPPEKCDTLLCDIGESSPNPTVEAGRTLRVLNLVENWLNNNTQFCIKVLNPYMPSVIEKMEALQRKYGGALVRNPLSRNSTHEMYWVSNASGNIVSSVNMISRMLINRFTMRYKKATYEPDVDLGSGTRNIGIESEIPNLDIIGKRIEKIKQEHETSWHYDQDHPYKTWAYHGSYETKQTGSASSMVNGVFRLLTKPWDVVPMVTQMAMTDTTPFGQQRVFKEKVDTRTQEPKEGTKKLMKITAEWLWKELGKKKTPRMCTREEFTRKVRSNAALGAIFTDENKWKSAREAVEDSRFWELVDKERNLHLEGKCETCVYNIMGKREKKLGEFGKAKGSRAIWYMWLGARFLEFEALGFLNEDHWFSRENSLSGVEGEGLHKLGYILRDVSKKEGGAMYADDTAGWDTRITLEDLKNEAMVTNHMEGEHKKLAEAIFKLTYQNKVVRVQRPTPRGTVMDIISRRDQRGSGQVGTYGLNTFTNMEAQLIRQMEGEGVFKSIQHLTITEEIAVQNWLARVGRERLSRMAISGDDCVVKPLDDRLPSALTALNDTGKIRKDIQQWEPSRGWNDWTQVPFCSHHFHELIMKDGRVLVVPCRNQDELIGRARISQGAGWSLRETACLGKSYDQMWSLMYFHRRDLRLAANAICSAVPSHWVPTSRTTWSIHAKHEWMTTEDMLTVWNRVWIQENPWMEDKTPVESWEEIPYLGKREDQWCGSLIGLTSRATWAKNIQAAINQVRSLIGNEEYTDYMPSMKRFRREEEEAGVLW

[11] = Late stage counterscreen for inhibitors of Trypanosoma brucei methionyl tRNA synthetase (MetRS): Luminescence-based cell-based high throughput dose response assay to identify compounds that are cytotoxic to Jurkat human T lymphocyte cells.; assay type: functional
[12] = molecular target: T5, Methionyl-tRNA synthetase, putative (Trypanosoma brucei brucei, UniProt Q38C91); assay type: functional, Trypanosoma brucei brucei strain 927/4 GUTat10.1
T5 sequence (Q38C91 whole entry): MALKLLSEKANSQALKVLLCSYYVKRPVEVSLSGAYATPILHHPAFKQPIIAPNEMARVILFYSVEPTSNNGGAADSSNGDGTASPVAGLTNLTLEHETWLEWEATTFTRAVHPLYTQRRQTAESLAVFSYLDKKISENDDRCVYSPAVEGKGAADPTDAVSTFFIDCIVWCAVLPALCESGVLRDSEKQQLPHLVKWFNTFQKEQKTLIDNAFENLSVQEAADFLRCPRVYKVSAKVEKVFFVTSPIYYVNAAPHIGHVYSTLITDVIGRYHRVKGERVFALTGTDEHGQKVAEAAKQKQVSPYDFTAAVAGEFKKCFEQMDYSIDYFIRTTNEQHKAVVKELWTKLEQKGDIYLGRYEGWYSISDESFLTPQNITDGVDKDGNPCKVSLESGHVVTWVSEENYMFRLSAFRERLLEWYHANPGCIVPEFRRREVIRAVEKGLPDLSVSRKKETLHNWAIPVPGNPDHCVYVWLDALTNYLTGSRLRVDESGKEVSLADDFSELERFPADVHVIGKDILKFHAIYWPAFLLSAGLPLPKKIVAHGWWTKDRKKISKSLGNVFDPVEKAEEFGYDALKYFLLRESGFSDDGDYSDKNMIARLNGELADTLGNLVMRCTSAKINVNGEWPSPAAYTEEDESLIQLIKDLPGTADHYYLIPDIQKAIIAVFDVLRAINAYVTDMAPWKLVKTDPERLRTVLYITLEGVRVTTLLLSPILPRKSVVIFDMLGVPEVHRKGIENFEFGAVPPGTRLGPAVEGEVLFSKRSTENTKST

[13] = Counterscreen for inhibitors of Trypanosoma brucei methionyl tRNA synthetase (MetRS): Luminescence-based cell-based high throughput dose response assay to identify compounds that are cytotoxic to Jurkat human T lymphocyte cells.; assay type: functional
[14] = molecular target: T5, Methionyl-tRNA synthetase, putative; assay type: functional, Trypanosoma brucei brucei strain 927/4 GUTat10.1; remark: listed apart in the source
[15] = molecular target: Bifunctional protein GlmU (Mycobacterium tuberculosis, UniProt P9WMN3); test: Inhibitors of Mycobacterial Glucosamine-1-phosphate acetyl transferase (GlmU). Secondary screen.; design: species or system Mycobacterium tuberculosis H37Rv
Chain of Bifunctional protein GlmU (P9WMN3 whole entry): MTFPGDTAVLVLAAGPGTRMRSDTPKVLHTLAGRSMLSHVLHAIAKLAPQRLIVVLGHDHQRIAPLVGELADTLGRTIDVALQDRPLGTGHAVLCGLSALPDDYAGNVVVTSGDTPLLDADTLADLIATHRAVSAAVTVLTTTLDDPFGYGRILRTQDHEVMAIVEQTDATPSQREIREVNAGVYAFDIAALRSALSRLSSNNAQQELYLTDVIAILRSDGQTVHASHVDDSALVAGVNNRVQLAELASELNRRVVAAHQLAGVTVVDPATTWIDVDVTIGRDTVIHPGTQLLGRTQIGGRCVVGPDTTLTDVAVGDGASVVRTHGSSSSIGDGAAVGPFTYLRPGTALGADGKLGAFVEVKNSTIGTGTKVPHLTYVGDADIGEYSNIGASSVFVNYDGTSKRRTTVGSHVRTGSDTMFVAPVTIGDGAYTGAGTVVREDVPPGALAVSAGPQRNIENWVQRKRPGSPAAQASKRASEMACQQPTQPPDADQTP

[16] = inhibitors of intracellular T. cruzi replication, confirmation, NIH3T3 host cells, beta-gal luminescence (AID 2044); assay type: functional, cell-based;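 also: intracellular parasites grown in NIH/3T3 mouse fibroblasts as host cells; luminescent beta-galactosidase reporter signal from transgenic T. cruzi replicating inside host cells; inhibitors lower the luminescence signal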
[17] = cells
[18] = cytotoxicity toward NIH3T3 fibroblasts, dose response, counter-screen, cell-based, ATP luminescence, mouse fibroblasts (AID 2010); assay type: functional;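 also: cells exposed to compound for about 90 hours before reading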
[19] = molecular target: E3 ubiquitin-protein ligase Mdm2 (Homo sapiens, UniProt Q00987); test: enhancers of MDM2-luciferase reporter signal, concentration-effect titration, project on inhibitors of MDM2 ubiquitin ligase, cellular assay, luminescent readout, 384-well plate format (AID 1394); assay type: functional;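 also: MDM2 E3 inhibitors raise luminescence so EC50 is for signal enhancement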
Chain of E3 ubiquitin-protein ligase Mdm2 (Q00987 whole entry): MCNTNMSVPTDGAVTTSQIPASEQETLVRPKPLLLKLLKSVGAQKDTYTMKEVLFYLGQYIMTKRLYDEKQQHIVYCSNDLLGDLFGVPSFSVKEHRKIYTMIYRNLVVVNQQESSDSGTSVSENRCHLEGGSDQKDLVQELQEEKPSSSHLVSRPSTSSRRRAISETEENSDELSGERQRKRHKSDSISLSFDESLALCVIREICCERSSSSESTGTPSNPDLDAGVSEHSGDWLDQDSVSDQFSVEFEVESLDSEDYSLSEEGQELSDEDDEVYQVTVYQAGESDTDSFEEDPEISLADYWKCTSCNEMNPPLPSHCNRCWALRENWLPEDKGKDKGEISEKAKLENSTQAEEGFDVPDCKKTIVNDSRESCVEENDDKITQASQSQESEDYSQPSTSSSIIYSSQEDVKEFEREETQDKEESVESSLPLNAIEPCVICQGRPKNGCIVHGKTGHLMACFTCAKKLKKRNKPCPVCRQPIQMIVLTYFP

Question: Which CC50 [1] does the source give for Cc1cc(C)c(C(=O)Nc2ccc(Br)c(C(F)(F)F)c2)c(C)c1 here?
Answer: 47.4 µM (active)

Question: What about the EC50 [2] of the same compound?
Answer: 2.41 µM (active)

Question: What about the EC50 [3] of the same compound?
Answer: 3.73 µM (active)

Question: And the EC50 [4]?
Answer: 3.29 µM (active)

Question: With O=C1C(Cl)=C(N2CCOCC2)C(=O)N1c1cccc(Cl)c1 as the compound, how does the EC50 [5] read?
Answer: 1.46 µM (active)

Question: What about the IC50 [6] of the same compound?
Answer: > 10 µM (inconclusive)

Question: What about the IC50 [7] of the same compound?
Answer: 6.37 µM (active)

Question: What about the IC50 [8] of the same compound?
Answer: 8.47 µM (active)

Question: And the AC50 [9]?
Answer: 4.14 µM (active)

Question: What about the IC50 [10] of the same compound?
Answer: 13.6 µM (active)

Question: Which results are given for O=C(NCc1nc2ccccc2[nH]1)C1=C[C@@H](c2ccc(Br)cc2)C[C@@H](OCc2ccc(CO)cc2)O1?
Answer: IC50 [11]: 66.6 µM (inactive); IC50 [12]: 0.498 µM (active); IC50 [13]: 33.7 µM (inactive); IC50 [14]: 1.33 µM (active)

Question: Which IC50 [15] does the source give for O=C1C(Cl)=C(Nc2ccccc2O)C(=O)N1CCc1ccccc1 here?
Answer: 85.3 µM (active)

Question: For Cc1ccccc1OCCNc1cc(N2CCN(CCO)CC2)ccc1[N+](=O)[O-], which CC50 [1] is on record?
Answer: 19.4 µM (active)

Question: Which EC50 [16] does the source give for COc1cccc(CNC(=O)CCC2CCCN(C/C=C/c3ccccc3OC)C2)c1 (stereo not given) here?
Answer: < 0.1 µM (active)

Question: What about the EC50 [17] of the same compound?
Answer: 0.05 µM (active)

Question: What about the EC50 [18] of the same compound?
Answer: > 60 µM (not active)

Question: With OC(c1nnc(-c2ccccc2)o1)c1cccs1 (stereo not given) as the compound, how does the EC50 [19] read?
Answer: 441 µM (not active)
